The data set can be described thus: Pharmacokinetics in mice. Set-up: AUC: unit not given here. It is filed as in vivo, C57BL/6 mice. The procedure:
Given M029's superb potency, selectivity, and target engagement, we considered that these desirable attributes make it a powerful chemical probe for interrogating the roles of SHP1 in biological processes and a promising lead for further development into an SHP1‐targeted therapy. […] To that end, we determined the pharmacokinetic (PK) properties of M029 in mice by administrating the compound via intraperitoneal (IP), intravenous (IV), and oral (PO) routes at a concentration of 25 mg/kg (Figure S4). […] Importantly, M029 is orally bioavailable. […] Moreover, even with the 25 mg/kg oral gavage, the plasma concentration of M029 was maintained several‐fold higher than its biochemical IC50 and two‐fold above its cellular EC50 for Jurkat T cell activation for at least 1 h duration (Figure S4). These PK properties ensure that adequate M029 compound exposure can be achieved to assess the effect of SHP1 inhibition in vivo.
Figure S4. Pharmacokinetic parameters of M029. Curves of (A) PO, (B) IP, (C) IV dosage of M029 at 25 mg/kg in WT C57BL/6 mice. Results were analyzed using GraphPad Prism 10.4.2. The figure is plotted as average ± standard error of the mean (SEM).
All the in vivo studies were performed under an animal protocol (1511001324) approved by the Institutional Animal Care & Use Committee of Purdue University, in accordance with the recommendations in the Guide for the Care and Use of Laboratory Animals of the National Institutes of Health. For PK study, C57BL6 female mice (25-30g body weight) were injected intraperitoneally, orally, or intravenously with 25 mg/kg M029 dissolved in 0.4 ml saline. Blood samples were collected through the tail vein at the indicated time points after injection. Isoflurane was used as an anesthetic. All blood samples were centrifuged at 1,500 g for 5 minutes, and plasma was separated and stored at –80°C until analysis by a validated method based on reversed-phase liquid chromatography coupled to mass-spectrometric detection (LC/MS) using a previously published procedure.^169 For the MC38 syngeneic tumor study, 12-week-old C57BL6 female mice were injected subcutaneously with […] MC38 cells in the right and left flanks for tumor growth. When tumors reached an average volume of 100 mm^3 mice were tumor size-matched and randomly assigned to different experimental groups for experiments. Four mice with eight tumors were used in each treatment group. Mice were injected orally with saline or 25 or 100 mg/kg M029 daily. Tumor sizes and animal weights were measured twice per week. Tumor volume (mm^3) = (length X width^2)/2. At the end of the experiments, mice were euthanized, and tumors were collected for analysis. Among eight tumors collected from each group, four homogenous samples and […] were prepared for Western blots and histology analysis.

Read-outs that look alike come from different tables or passages of the source.

By bioavailability is commonly meant the share of a dose that reaches the circulation, judged against a reference dose that is usually intravenous.

On to `N#Cc1ccsc1NS(=O)(=O)c1ccc(NC(=O)CCl)cc1` [M029, 2-Chloro-N-(4-(N-(3-cyanothiophen-2-yl)sulfamoyl)phenyl)acetamide], for which the “duration plasma concentration above biochemical IC50 and two-fold above cellular EC50” value (25 mg/kg oral gavage) was “at least 1 h”. The AUC runs as follows: (female, C57BL/6, mouse, plasma, 25 mg/kg oral, read-out: AUC, oral) 1410; (female, C57BL/6, mouse, plasma, ip, 25 mg/kg intraperitoneal, read-out: area under the curve (AUC), IP) 5090. Also, the Cmax runs as follows: (female, C57BL/6, mouse, plasma, 25 mg/kg oral, read-out: Cmax, oral) 29.8 ± 7.1 µM; (female, C57BL/6, mouse, plasma, ip, 25 mg/kg intraperitoneal, read-out: peak plasma concentration (Cmax), IP) 122 ± 28.2 µM. Moreover, the half-life (female, C57BL/6, mouse, plasma, 25 mg/kg oral, read-out: t1/2, oral) was found to be 38.5 ± 7.6 min and the half-life (female, C57BL/6, mouse, plasma, ip, 25 mg/kg intraperitoneal, read-out: half-life (t1/2), IP) was 36.3 ± 5.7 min. Besides, the bioavailability (female, C57BL/6, mouse, plasma, po, 25 mg/kg, read-out: oral bioavailability (%F)) came to 18%.
